# Results reported in paper PMC7150991 (Viruses, 2020).
# Several values for one entry are separate records, joined by “and”; a condition that tells them apart may be missing. Equal values may be shown once. Read-outs that look alike come from different tables or passages of the source.
# Legend:
# influenza A virus [1] = experiment: microbe, parasite or virus in culture; format: cell-based; details: A549, 48 h
# influenza virus [2] = details: MDCK cells, ref Wu et al. [20], cited from earlier work
# MDCK cells = experiment: XTT cell viability assay, MDCK cells; format: cell-based, canine; details: 48 h
# A549 cells = experiment: XTT cell viability assay, A549 cells; format: cell-based, human; details: 48 h
# influenza A virus [3] = experiment: microbe, parasite or virus in culture; format: cell-based; details: MDCK, 48 h
# influenza virus [4] = details: cited from earlier work
# influenza A virus NP = format: cell-based, human
# influenza A virus [5] = experiment: microbe, parasite or virus in culture; format: cell-based; details: 72 h
# influenza A virus [6] = experiment: microbe, parasite or virus in culture; format: cell-based; details: 48 h
# ERK1 = experiment: cells; format: cell-based, human
# HAE cultures = experiment: Cytotoxicity in HAE cultures; format: cell-based, human; details: up to 160 µM (0.054 µg/mL)
# LET1 cells = experiment: XTT cell viability assay, LET1 cells; format: cell-based, mouse; details: 48 h
# H1N1 virus = details: MDCK cells; ref Cecil et al. [19]; cited from earlier work
structure (smiles),measurement,setting,value
"COc1ccc2cc3[n+](cc2c1OC)CCc1cc2c(cc1-3)OCO2 [BBR, Berberine chloride hydrate]",IC50,influenza A virus [1],17 µM and 6 µg/mL
same,IC50,"influenza virus [2]; conversion of 0.025 µg/mL, read-out: IC50",~67 µM
same,IC50,influenza virus [2],0.025 µg/mL
same,TC50,MDCK cells,1035 µM
same,TC50,MDCK cells; value in brackets,0.350 µg/mL
same,TC50,A549 cells,107 µM
same,TC50,A549 cells; value in brackets,0.036 µg/mL
same,IC50,influenza A virus [3],52 µM and 17 µg/mL
same,mice mortality,"influenza virus [4]; mice models, reduced from 90%",55%
same,virus titers in the lungs,"influenza virus [4]; mice, day 2 post-infection",decreased
same,accumulation of influenza A virus NP in nuclear fractions,influenza A virus NP,did not cause significant accumulation
same,decrease of NP signal in cytoplasmatic fraction,influenza A virus NP,about 40 % inhibition
same,increase of viral NP in nuclear fractions compared to untreated infection,influenza A virus NP,~ 3 fold
same,IC50,influenza A virus [5],16 µM and 5 µg/mL
same,IC50,influenza A virus [6],4 µM and 1 µg/mL
same,inhibition at 20 µM,"ERK1; Homo sapiens, A549, 12 h, read-out: inhibition of ERK1 activation (phospho-ERK1, Western blot)",45%
same,cytotoxicity at tested concentrations,HAE cultures,did not observe cytotoxicity
same,TC50,LET1 cells,521 µM
same,TC50,LET1 cells; value in brackets,0.176 µg/mL
same,inhibition of virus replication,H1N1 virus,No inhibition
"N#CC(=C(/N)Sc1ccccc1N)/C(C#N)=C(/N)Sc1ccccc1N [U0126, reference compound]",decrease of NP signal in cytoplasmatic fraction,influenza A virus NP,about 40 % inhibition
same,increase of viral NP in nuclear fractions compared to untreated infection,influenza A virus NP,~ 3 fold
same,"inhibition of ERK1 activation (phospho-ERK1, Western blot)",ERK1,76 % inhibition
